The values that follow come from PubChem BioAssay (NCI).

SMILES strings stand for the structures.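 Protocol summary: plate cells (96-well), add compound at 5 concentrations, incubate 48 h, interpolate endpoints linearly. Abbreviation: GI50, concentration required for 50% inhibition of growth. TGI marks complete inhibition of growth.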

Among the test systems are DU-145 prostate; T-47D breast; SNB-19 CNS; HS 578T breast; HCT-116 colon; SW-620 colon; IGROV1 ovarian; RXF 393 renal.
Holding throughout (experiment): NCI anticancer screen, dose series, 48 h

Regarding `Cn1c([N+](=O)[O-])cnc1C=C1C(=O)c2ccccc2C1=O`, the GI50 with DU-145 prostate was 6.45 µM; in the experiment with T-47D breast, 11.4 µM; with SNB-19 CNS it was 15.1 µM; in the experiment on HS 578T breast it was 2.43 µM; in the experiment on HCT-116 colon, 3.77 µM; in the experiment on SW-620 colon, 3.34 µM. The values for the GI50 in the experiment on IGROV1 ovarian and in the experiment with RXF 393 renal were 3.56 µM and 2.6 µM, respectively. The TGI in the experiment on DU-145 prostate was 19.6 µM; with T-47D breast, 44.6 µM; with SNB-19 CNS, 44.5 µM; with HS 578T breast it was 8.71 µM; with HCT-116 colon, 13.1 µM; in the experiment on SW-620 colon, 13.1 µM. In addition, the TGI in the experiment on IGROV1 ovarian came to 18.5 µM; in the experiment on RXF 393 renal it was 10.3 µM.

For the compound `O=C1Oc2ccccc2C(=O)/C1=C1/C=C(c2ccccc2)SS1`, the TGI in the experiment with DU-145 prostate, with T-47D breast, in the experiment with SNB-19 CNS, in the experiment with HS 578T breast, in the experiment on HCT-116 colon and with SW-620 colon was > 100 µM in each case. For the same compound, the TGI with IGROV1 ovarian and with RXF 393 renal was > 100 µM throughout.

For `Cc1ccc2c(-c3ccnc(Nc4ccc5c(c4)OCCO5)n3)c(-c3ccc(C(F)(F)F)cc3)nn2n1`, the GI50 with DU-145 prostate is > 20.6 µM; in the experiment with T-47D breast, 1.78 µM; with SNB-19 CNS, > 25 µM; in the experiment on HS 578T breast, 12.4 µM; with HCT-116 colon, 7.32 µM; in the experiment on SW-620 colon it was > 25 µM. Moreover, the figures for the GI50 with IGROV1 ovarian and in the experiment on RXF 393 renal were 2.76 µM and 4.39 µM, respectively. Moreover, the TGI in the experiment on DU-145 prostate, in the experiment with T-47D breast, in the experiment on SNB-19 CNS, with HS 578T breast, with HCT-116 colon and with SW-620 colon was > 25 µM throughout. The TGI in the experiment on IGROV1 ovarian and with RXF 393 renal was > 25 µM throughout.

Consider `N#CC1(c2ccc(NC(=O)c3cccnc3NCc3ccncc3)cc2)CCCC1`, for which the GI50 in the experiment with DU-145 prostate was 18.8 µM; with T-47D breast, 4.15 µM; with SNB-19 CNS it was 27.7 µM; in the experiment with HS 578T breast, 9.86 µM; with HCT-116 colon, 12.1 µM; in the experiment with SW-620 colon, 24.2 µM. The GI50 was 20.5 µM with IGROV1 ovarian and 2.81 µM in the experiment on RXF 393 renal. The TGI with DU-145 prostate is > 100 µM; with T-47D breast, 49.7 µM; in the experiment with SNB-19 CNS, > 100 µM; in the experiment on HS 578T breast, 50.2 µM; with HCT-116 colon, 32 µM; with SW-620 colon, 72.1 µM. In addition, the results for the TGI in the experiment with IGROV1 ovarian and with RXF 393 renal were > 89.8 µM and 12.3 µM, respectively.

Regarding `Cc1cccc(NC(=O)c2sc3nc4c(cc3c2N)C(=O)CCC4)c1`, the GI50 in the experiment on DU-145 prostate is 0.302 µM; with T-47D breast, 0.397 µM; in the experiment on SNB-19 CNS, 0.464 µM; with HS 578T breast, 0.291 µM; with HCT-116 colon, 0.333 µM; with SW-620 colon, 0.212 µM. Further, the GI50 with IGROV1 ovarian was 0.68 µM; with RXF 393 renal, 0.252 µM. The TGI in the experiment on DU-145 prostate is > 30 µM; with T-47D breast it was > 100 µM; in the experiment on SNB-19 CNS, > 100 µM; with HS 578T breast, 12.9 µM; in the experiment with HCT-116 colon, > 100 µM; in the experiment on SW-620 colon, > 65.8 µM. Moreover, the TGI in the experiment on IGROV1 ovarian was > 60.8 µM.

Consider `O=c1c2ccccc2sc2c(CO)ccc(NCCN3CCCCC3)c12`, for which the TGI worked out at 7.18 µM in the experiment on DU-145 prostate; 20.6 µM in the experiment on T-47D breast; 17.6 µM with SNB-19 CNS; 15.9 µM in the experiment on HS 578T breast; 11.8 µM in the experiment with HCT-116 colon; 11.2 µM in the experiment on SW-620 colon. Moreover, the figures for the TGI in the experiment with IGROV1 ovarian and in the experiment with RXF 393 renal were 15 µM and 7.72 µM, respectively.

Regarding `O=C(Nc1cccc(-n2cc(-c3ccncc3)c(-c3cc(O)cc(Cl)c3)n2)c1)c1ccc(N2CCOCC2)c(C(F)(F)F)c1`, the GI50 in the experiment with DU-145 prostate is 5.65 µM; in the experiment with T-47D breast, 3.81 µM; in the experiment on SNB-19 CNS, 3.33 µM; with HS 578T breast, 2.94 µM; with HCT-116 colon it was 1.96 µM; with SW-620 colon it was 2.83 µM. The GI50 in the experiment with IGROV1 ovarian is 5.12 µM; in the experiment with RXF 393 renal, 0.303 µM. The TGI with DU-145 prostate is > 100 µM; with T-47D breast it was > 100 µM; with SNB-19 CNS, 33.6 µM; in the experiment on HS 578T breast it was > 100 µM; with HCT-116 colon, > 100 µM; in the experiment with SW-620 colon, 7.06 µM. The values for the TGI in the experiment on IGROV1 ovarian and in the experiment with RXF 393 renal were > 100 µM and 1.9 µM, respectively.

`CC1(C)N=C(N)N=C(N)N1c1ccc(CCC(=O)Nc2ccc(S(=O)(=O)F)cc2)cc1`: the GI50 in the experiment with DU-145 prostate was 0.871 µM; with T-47D breast it was 16.2 µM; in the experiment with SNB-19 CNS, 7.16 µM; with HS 578T breast, > 75.8 µM; in the experiment on HCT-116 colon, 0.425 µM; in the experiment with SW-620 colon, 0.371 µM. The GI50 is 0.0723 µM in the experiment with IGROV1 ovarian and 0.307 µM in the experiment with RXF 393 renal. In addition, the TGI in the experiment on DU-145 prostate, with T-47D breast, in the experiment on SNB-19 CNS, in the experiment on HS 578T breast, in the experiment with HCT-116 colon and in the experiment with SW-620 colon was > 100 µM in each case. The TGI in the experiment with IGROV1 ovarian and in the experiment with RXF 393 renal was > 100 µM in each case.

Take `O=C1c2cccc(Oc3ccccc3)c2C(=O)c2cccc(Oc3ccccc3)c21`: the GI50 with DU-145 prostate is > 100 µM; in the experiment on T-47D breast it was > 100 µM; in the experiment with SNB-19 CNS, 9.56 µM; with HS 578T breast it was 7.68 µM; with HCT-116 colon, > 100 µM; in the experiment with SW-620 colon it was > 100 µM. Besides, the GI50 in the experiment on IGROV1 ovarian is > 100 µM; in the experiment on RXF 393 renal it was 4.7 µM. The TGI in the experiment with DU-145 prostate is > 100 µM; in the experiment on T-47D breast, > 100 µM; with SNB-19 CNS, 72.1 µM; in the experiment with HS 578T breast, > 100 µM; with HCT-116 colon, > 100 µM; with SW-620 colon, > 100 µM. The TGI in the experiment with IGROV1 ovarian is > 100 µM; with RXF 393 renal, 36.4 µM.

`COc1ccc2c(c1)C(=O)c1c-2c(Nc2ccccc2OC)nc2ccccc12`: the GI50 in the experiment with DU-145 prostate, in the experiment with T-47D breast, with SNB-19 CNS, with HS 578T breast, with HCT-116 colon and with SW-620 colon was > 100 µM each time. Also, the GI50 with IGROV1 ovarian and in the experiment on RXF 393 renal was > 100 µM throughout. Further, the TGI in the experiment on DU-145 prostate, in the experiment with T-47D breast, in the experiment with SNB-19 CNS, with HS 578T breast, in the experiment on HCT-116 colon and in the experiment on SW-620 colon was > 100 µM each time. The TGI in the experiment on IGROV1 ovarian and with RXF 393 renal was > 100 µM throughout.

Take `Nc1ncc(Cc2ccc3c(c2)OCO3)c(N)n1`: the TGI in the experiment with DU-145 prostate, in the experiment on T-47D breast, in the experiment on SNB-19 CNS, with HS 578T breast, with HCT-116 colon and with SW-620 colon was > 100 µM throughout. The TGI with IGROV1 ovarian and with RXF 393 renal was > 100 µM in each case.

`CNC(=O)c1ncccc1Nc1nc(Nc2cc3c(cc2OC)CCCN3C(=O)CN(C)C)nc2[nH]ccc12`: the GI50 was 0.753 µM with DU-145 prostate; 3.37 µM in the experiment on T-47D breast; 3.49 µM with SNB-19 CNS; 1.21 µM in the experiment on HS 578T breast; 1.11 µM in the experiment with HCT-116 colon; 0.224 µM in the experiment on SW-620 colon. The GI50 in the experiment with IGROV1 ovarian was 3.52 µM; in the experiment on RXF 393 renal it was 0.974 µM. The TGI in the experiment on DU-145 prostate was found to be 3.02 µM; in the experiment with T-47D breast, 9.19 µM; in the experiment on SNB-19 CNS, 11.2 µM; in the experiment on HS 578T breast it was 5.69 µM; with HCT-116 colon it was 4.89 µM; with SW-620 colon, 3.22 µM. Besides, the TGI was 8.66 µM with IGROV1 ovarian and 3.8 µM in the experiment on RXF 393 renal.

As for `CCN(CC)CCCNc1ccc(C)c2sc3ccccc3c(=O)c12`, the GI50 is 1.04 µM in the experiment with DU-145 prostate; 0.492 µM in the experiment with T-47D breast; 1.03 µM in the experiment on SNB-19 CNS; 1.49 µM with HS 578T breast; 0.407 µM with HCT-116 colon; 0.393 µM in the experiment with SW-620 colon. For the same compound, the GI50 with IGROV1 ovarian is 1.22 µM; in the experiment on RXF 393 renal, 0.446 µM. Moreover, the TGI in the experiment with DU-145 prostate was 2.44 µM; with T-47D breast, 2.55 µM; with SNB-19 CNS, 2.71 µM; in the experiment with HS 578T breast, 5.7 µM; in the experiment on HCT-116 colon, 1.59 µM; with SW-620 colon, 1.51 µM. Besides, the TGI in the experiment on IGROV1 ovarian came out at 2.92 µM; with RXF 393 renal, 1.76 µM.

Consider `COc1ccc2c(N)ncc(C#Cc3cc(C(=O)Nc4ccc(CN5CCN(C)CC5)c(C(F)(F)F)c4)cnc3C)c2c1`, for which the GI50 in the experiment with DU-145 prostate is 0.419 µM; in the experiment with T-47D breast, 13.5 µM; with SNB-19 CNS, 0.933 µM; in the experiment with HS 578T breast, 0.847 µM; in the experiment on HCT-116 colon, 0.483 µM; in the experiment on SW-620 colon, 0.578 µM. The results for the GI50 in the experiment with IGROV1 ovarian and with RXF 393 renal were 0.437 µM and 0.502 µM, respectively. Moreover, the TGI in the experiment with DU-145 prostate came out at 0.874 µM; with T-47D breast, 25.4 µM; with SNB-19 CNS it was 2.38 µM; in the experiment with HS 578T breast it was 4.2 µM; with HCT-116 colon it was 1.05 µM; in the experiment with SW-620 colon, 1.3 µM. In addition, the TGI was 2.11 µM in the experiment on IGROV1 ovarian and 1.11 µM with RXF 393 renal.
